For orientation: IC50 means the point on the concentration scale where inhibition reaches its midpoint.

Like-named read-outs stand apart in the source and are kept apart here.

22 molecules from US11866405B2, “Substituted indazoles as IRAK4 inhibitors” (AstraZeneca AB, priority 2020, dated 2024) can be followed below.

Test [1] concerns the target IRAK4 auto-phosphorylation (Homo sapiens (Human), UniProt Q9NWZ3). Description: IRAK4 phosphorylation cell assay in IL-1β-stimulated Karpas-299 cells. The class given is cell-based. To be noted: IL-1β 22.7 ng/mL, pIRAK4 (Thr345/Ser346), geometric mean of at least 2 experiments. The essentials: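 Karpas-299 cells were preincubated 1 h at 37 °C with compound (10-point half-log series, top 30 μM), then stimulated 10 min with 22.7 ng/mL IL-1β. Cells were fixed and stained for pIRAK4 (Thr345/Ser346), and per-cell fluorescence was quantified by high-content imaging. IC50 values are geometric means of at least 2 experiments.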

In test [2] the target is human recombinant IRAK4 protein (Homo sapiens (Human), UniProt Q9NWZ3). Nature of the test: IRAK4 enzyme assay (mass spectrometry readout). It counts as biochemical. Conditions: 3 mM ATP, 0.2 nM enzyme; geometric mean of at least n=2, * single experiment. The essentials: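 0.2 nM IRAK4 preincubated 15 min at room temperature with compound (10-point half-log series, top 1 μM or 10 μM) in pH 7.4 Tris buffer with 3 mM ATP; 10 μM peptide substrate added, 2 h at room temperature, formic acid stop. Phospho/unphospho peptide ratio by LC-MS/MS; potency from curve fit, geometric mean of n≥2 or single run.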

Test [3] concerns IL-1β stimulated IL-8 release in hTHP1 cells. Description: IL-1β-induced IL-8 release in human THP-1 monocyte cell line. The class given is cell-based. To be noted: THP-1 cells, IL-1β 1.8 ng/mL. The procedure:
Effect of IRAK4 Inhibitors on IL-1β-Induced Cytokine Release in Human THP-1 Monocyte Cell Line
THP-1 cells were cultured in RPMI 1640 (Gibco 72400-021) containing 10% FBS (Gibco 10270-106), 1 mM Na-pyruvate (Gibco 11360-070) and 100 U/mL Penicillin-Streptomycin (Gibco 15140-122). Cells were plated at 5×10^4 cells per well in 384 well Echo certified plates (Labcyte PPT-0200) to which compounds had been added at various concentrations (10 point half log dose response with a final top concentration of 10 μM) using an Echo 655 (Labcyte Inc). The plate was incubated for 1 h at 37° C., then recombinant […] (R&D Systems 201-LB-025/CF) was added to a final concentration of 1.8 ng/mL. The plates were incubated at 37° C. for 18h. The plates were centrifuged at 250×g for four minutes, then 1.6 μL of the cell supernatant was transferred to a white low volume 384 well plate (Greiner #784075) using acoustic dispensing on an Echo 655. Next, 200 nL of acceptor bead (5 mg/mL) and biotinylated anti-IL-8 antibody (500 nM) was added using acoustic dispensing (beads and antibody were from a PerkinElmer 18 Alpha LISA detection kit, AL224C). The plate was sealed, briefly centrifuged, then incubated at room temperature for 1 h. Afterwards, 200 nL of donor bead solution (5 mg/mL) was added, the plate sealed and briefly centrifuged, then incubated for 1 h before being read on an Envision plate reader to allow determination the concentration of IRAK4 inhibitor required to effect a 50% reduction in the amount of IL-8 released following IL-1β stimulation in THP1 cells (Table 2). The quantified data were analysed in Genedata Screener 15 (Genedata AG). Data presented are the geometric mean of at least n=2, or as denoted by an * are obtained from a single experiment.

The mark [4] stands for this setting: 18 h, geometric mean of at least n=2, * n = 1, read-out: hTHP1, IL1β stim, IL8 release red. IC50.
[5] abbreviates: Homo sapiens, THP-1, 18 h, geometric mean of at least n=2, * n = 1, read-out: hTHP1, IL1β stim, IL8 release red. IC50.

Chain of human recombinant IRAK4 protein (Q9NWZ3 whole entry): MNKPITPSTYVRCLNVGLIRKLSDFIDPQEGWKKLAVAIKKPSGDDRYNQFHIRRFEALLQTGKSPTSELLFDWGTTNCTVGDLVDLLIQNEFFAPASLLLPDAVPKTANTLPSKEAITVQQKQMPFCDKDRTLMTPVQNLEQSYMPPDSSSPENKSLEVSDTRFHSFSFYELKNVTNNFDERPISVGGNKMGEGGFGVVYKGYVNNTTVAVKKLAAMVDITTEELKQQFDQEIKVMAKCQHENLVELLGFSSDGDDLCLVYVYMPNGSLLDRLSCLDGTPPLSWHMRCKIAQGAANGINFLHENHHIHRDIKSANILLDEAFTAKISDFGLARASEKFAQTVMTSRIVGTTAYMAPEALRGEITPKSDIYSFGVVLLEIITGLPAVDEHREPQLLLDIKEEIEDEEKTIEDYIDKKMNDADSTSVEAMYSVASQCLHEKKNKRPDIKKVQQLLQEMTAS
Chain of IRAK4 auto-phosphorylation (Q9NWZ3 whole entry): as above

As for `COc1cc2nn([C@H]3CC[C@H](N(C)C(C)=O)CC3)cc2cc1C(=O)Nc1cnn2cnccc12` [Example 25, 6-Methoxy-2-((1r,4r)-4-(N-methylacetamido)cyclohexyl)-N-(pyrazolo[1,5-c]pyrimidin-3-yl)-2H-indazole-5-carboxamide], the concentration for half-maximal inhibition (IC50) in test [1] was determined as 19 nM; in test [2], 1.4 nM; in test [3] (setting [4]), 23 nM.
`COc1cc2nn([C@H]3CC[C@@]4(CC3)CC(=O)N(C)C4)cc2cc1C(=O)Nc1cnc2cccnn12` [Example 68, N-(Imidazo[1,2-b]pyridazin-3-yl)-6-methoxy-2-((5s,8s)-2-methyl-3-oxo-2-azaspiro[4.5]decan-8-yl)-2H-indazole-5-carboxamide]: the IC50 in test [1] amounted to 53 nM; in test [2] it was 1.6 nM; in test [3] (setting [5]) it was 84 nM.
Regarding “6-Cyclopropoxy-2-((1r,4r)-4-(N-methylacetamido)cyclohexyl)-N-(pyrazolo[1,5-a]pyrimidin-3-yl)-2H-indazole-5-carboxamide [Example 33]”, the results for the IC50 in test [1], in test [2] and in test [3] (setting [4]) were 45 nM, 1 nM and 30 nM, respectively.
Take `COc1cc2nn([C@H]3CC[C@H](O)C[C@@H]3C)cc2cc1C(=O)Nc1cnc2cccnn12` [Example 91, 2-((1S,2S,4S)-4-hydroxy-2-methylcyclohexyl)-N-(imidazo[1,2-b]pyridazin-3-yl)-6-methoxy-2H-indazole-5-carboxamide]: the concentration for half-maximal inhibition (IC50) in test [1] was determined as 88 nM; in test [2], 2.3 nM; in test [3] (setting [5]) it was 49 nM.
For the molecule `COc1cc2nn([C@H]3CCC[C@@H](O)C3)cc2cc1C(=O)Nc1cnn2cccnc12` (single isomer, unassigned) [Example 14], the concentration for half-maximal inhibition (IC50) in test [1] came to 171 nM; in test [2], 17.7 nM; in test [3] (setting [4]) it was 38 nM.
For `COc1cc2nn([C@H]3CC[C@H](O)CC3)cc2cc1C(=O)Nc1cnc2cccnn12` [Example 8, 2-((1r,4r)-4-Hydroxycyclohexyl)-N-(imidazo[1,2-b]pyridazin-3-yl)-6-methoxy-2H-indazole-5-carboxamide] the same measures were 58 nM, 2.8 nM and 50 nM.
As for `COc1cc2nn(C3CCC4(CC3)CC(C)(O)C4)cc2cc1C(=O)Nc1cnc2cccnn12` (single isomer, unassigned) [Example 5, 2-(2-Hydroxy-2-methylspiro[3.5]nonan-7-yl)-N-(imidazo[1,2-b]pyridazin-3-yl)-6-methoxy-2H-indazole-5-carboxamide], the IC50 in test [1] is 31 nM; in test [2], 0.5 nM; in test [3] (setting [5]), 16 nM.
Take `COc1cc2nn([C@@H]3CCC4(C[C@@H]3C)CN(C(C)=O)C4)cc2cc1C(=O)Nc1cnc2cccnn12` (single isomer, unassigned) [Example 65]: the IC50 in test [1] was 44 nM; in test [2] it was 1.1 nM; in test [3] (setting [4]), 52 nM.
With `O=C(Nc1cnn2cccnc12)c1cc2cn([C@@H]3CCC[C@H](O)C3)nc2cc1OC1CC1` [Example 17, 6-cyclopropoxy-2-((1R,3S)-3-hydroxycyclohexyl)-N-(pyrazolo[1,5-a]pyrimidin-3-yl)-2H-indazole-5-carboxamide], the IC50 amounted to 50 nM in test [1], 1 nM in test [2] and 24 nM in test [3] (setting [5]).
With `COc1cc2nn([C@@H]3CCC4(C[C@H]3C)CN(C(C)=O)C4)cc2cc1C(=O)Nc1cnc2cccnn12` (single isomer, unassigned) [Example 67], the half-inhibitory concentration (IC50) in test [1] stood at 144 nM; in test [2], 4.3 nM; in test [3] (setting [4]), 91 nM.
In the case of `COc1cc2nn([C@H]3CC[C@H](N(C)C(C)=O)CC3)cc2cc1C(=O)Nc1cnc2cccnn12` [Example 23, N-(Imidazo[1,2-b]pyridazin-3-yl)-6-methoxy-2-((1r,4r)-4-(N-methylacetamido)cyclohexyl)-2H-indazole-5-carboxamide], the IC50 came out at 5 nM in test [1], 0.2 nM in test [2] and 7 nM in test [3] (setting [5]).
As to `COc1cc2nn([C@H]3CCC(N(C)C(C)=O)C[C@@H]3C)cc2cc1C(=O)Nc1cnc2cccnn12` (single isomer, unassigned) [Example 34, N-(imidazo[1,2-b]pyridazin-3-yl)-6-methoxy-2-((1S,2S,4R*)-2-methyl-4-(N-methylacetamido)cyclohexyl)-2H-indazole-5-carboxamide], the figures for the IC50 in test [1], in test [2] and in test [3] (setting [5]) were 31 nM, 2 nM and 22 nM, respectively.
Take `O=C(Nc1cnn2cccnc12)c1cc2cn([C@H]3CC[C@H](O)CC3)nc2cc1OC1CC1` [Example 57, 6-Cyclopropoxy-2-((1r,4r)-4-hydroxycyclohexyl)-N-(pyrazolo[1,5-a]pyrimidin-3-yl)-2H-indazole-5-carboxamide]: the IC50 in test [1] is 60 nM; in test [2], 0.8 nM; in test [3] (setting [5]), 35 nM.
Turning to `COc1cc2nn([C@@H]3CC[C@@](C)(O)C[C@H]3C)cc2cc1C(=O)Nc1cnc2cccnn12` [Example 93, 2-((1R,2R,4R)-4-hydroxy-2,4-dimethylcyclohexyl)-N-(imidazo[1,2-b]pyridazin-3-yl)-6-methoxy-2H-indazole-5-carboxamide], the IC50 in test [1] is 8 nM; in test [2], 0.4 nM; in test [3] (setting [5]), 30 nM.
As to `COc1cc2nn([C@@H]3CC[C@](C)(O)C[C@H]3C)cc2cc1C(=O)Nc1cnc2cccnn12` [Example 92, 2-((1R,2R,4S)-4-hydroxy-2,4-dimethylcyclohexyl)-N-(imidazo[1,2-b]pyridazin-3-yl)-6-methoxy-2H-indazole-5-carboxamide], the values for the 50% inhibitory concentration (IC50) in test [1], in test [2] and in test [3] (setting [5]) were 30 nM, 1.6 nM and 28 nM, respectively.
For `COc1cc2nn([C@H]3CC[C@]4(CC3)CC(=O)N(C)C4)cc2cc1C(=O)Nc1cnc2cccnn12` [Example 69, N-(Imidazo[1,2-b]pyridazin-3-yl)-6-methoxy-2-((5r,8r)-2-methyl-3-oxo-2-azaspiro[4.5]decan-8-yl)-2H-indazole-5-carboxamide], the IC50 was determined as 22 nM in test [1], 0.5 nM in test [2] and 15 nM in test [3] (setting [5]).
Take `COc1cc2nn([C@H]3CC[C@@H](O)CC3)cc2cc1C(=O)Nc1cnc2cccnn12` [Example 7, 2-((1s,4s)-4-Hydroxycyclohexyl)-N-(imidazo[1,2-b]pyridazin-3-yl)-6-methoxy-2H-indazole-5-carboxamide]: the IC50 in test [1] was determined as 111 nM; in test [2], 6 nM; in test [3] (setting [4]), 48 nM.
`COc1cc2nn([C@@H]3CCC(N(C)C(C)=O)C[C@H]3C)cc2cc1C(=O)Nc1cnc2cccnn12` (single isomer, unassigned) [Example 37, N-(imidazo[1,2-b]pyridazin-3-yl)-6-methoxy-2-(1R,2R,4R*)-2-methyl-4-(N-methylacetamido)cyclohexyl)-2H-indazole-5-carboxamide]: the IC50 in test [1] is 6 nM; in test [2], 0.3 nM; in test [3] (setting [5]) it was 3 nM.
Consider `O=C(Nc1cnn2cccnc12)c1cc2cn([C@H]3CCC[C@@H](O)C3)nc2cc1OC1CC1` [Example 18], for which the IC50 is 19 nM in test [1], less than 0.6 nM in test [2] and 21 nM in test [3] (setting [4]).
Turning to `COc1cc2nn([C@H]3CC[C@H](O)[C@@H](C)C3)cc2cc1C(=O)Nc1cnc2cccnn12` (single isomer, unassigned) [Example 80], the IC50 was 28 nM in test [1], 1.5 nM in test [2] and 70 nM in test [3] (setting [5]).
For the molecule `CC(=O)N1CC2(CC[C@@H](n3cc4cc(C(=O)Nc5cnn6cccnc56)c(OC5CC5)cc4n3)[C@@H](C)C2)C1` (single isomer, unassigned) [Example 30], the results for the IC50 in test [1], in test [2] and in test [3] (setting [4]) were 46 nM, less than 0.3 nM and 14 nM, respectively.
For `O=C(Nc1cnn2cccnc12)c1cc2cn([C@H]3CCC[C@H](O)C3)nc2cc1OC1CC1` (single isomer, unassigned) [Example 20] the same measures were 35 nM, 0.7 nM and 31 nM.
